The source of these data is article PMC11050443, “Discovery of Strong 3-Nitro-2-Phenyl-2H-Chromene Analogues as Antitrypanosomal Agents and Inhibitors of Trypanosoma cruzi Glucokinase” (International Journal of Molecular Sciences, 2024).

Several values for one entry are separate records, joined by “and”; a condition that tells them apart may be missing. Equal values may be shown once.

For data set [1], the system named is T. cruzi (Tulahuen strain) infective form co-cultured in NIH-3T3 fibroblasts. Description: In vitro T. cruzi biological assay (β-galactosidase/CPRG). Type of data set: cell-based, Trypanosoma cruzi. The conditions noted are these: for IC50: Tulahuen strain infective form growth inhibition co-cultured in NIH-3T3 fibroblasts, 4 days, N = 3; for T. cruzi growth inhibition (in words): efficacy in IC50. As to the method:
General methods for the preparation of in vitro cell cultures involving T. cruzi parasites and mammalian cells along with the exposure to inhibitors has previously been described by Andriani and colleagues. T. cruzi (Tulahuen strain) that expresses β-galactosidase was harvested by centrifugation at 2500 rpm for 7 min. Parasites were rinsed twice with DMEM lacking phenol red and supplemented with 2% fetal bovine serum (FBS) and 1% penicillin—streptomycin—L-glutamine (PSG); the final concentrations of the PSG components were 100 U/mL penicillin, 0.1 mg/mL streptomycin, and 0.292 mg/mL L-glutamine. It was necessary to exclude phenol red since it interferes with the absorbance reading at λ = 590 nm. The parasites were centrifuged again for 7 min at 2500 rpm and the 50 mL tubes were carefully removed from the centrifuge. The tubes were placed on a rack with an incubator so that the trypomastigotes would move out of the pellet in a timeframe of 3–5 h. During this period, 100 μL of NIH-3T3 cells (50,000 cells) were plated per well in a transparent, clear, flat-bottom, and sterile 96-well microplate. This plate was placed in an incubator for 3 h at 37 °C to allow the cells to attach. The 3-nitro-2-phenyl-2H-chromene compounds (inhibitors) that were prepared as 10.0 mM stock solutions in 100% DMSO were thawed from −80 °C to room temperature. The compound solutions were diluted to their desired working concentrations, which ranged from 0.0781–10.0 μM. This was accomplished by serial dilution using a 2-fold dilution. A total of 100 μL of parasites was added to each well, which contained 50,000 trypomastigotes, and were incubated for 4 days. Using a multichannel pipette, 50.0 μL of the substrate solution [500 μM CPRG in phosphate buffered saline supplemented with 0.5% detergent NP-40] was added to each well of the 96-well microplate. The plate was placed into an incubator for 4 h followed by measuring absorbance readings at λ = 590 nm using a Victor Nivo multimode microplate reader (PerkinElmer, Inc.; Shelton, CT, USA). All measurements were performed in triplicate; absorbance values were proportional to parasite cell viability. IC50 determinations for percent growth inhibition were processed using GraphPad Prism 10.0. Amphotericin B was used as a positive control, the final solution concentration of which was 4.0 μM (prepared as a 270 μM stock solution). Four control conditions were carried out, as follows: (a) NIH-3T3 cells and parasites, (b) NIH-3T3 cells without parasites, (c) NIH-3T3 cells, parasites, and 4.0 μM amphotericin B, and (d) the medium alone.

A further data set deals with NIH-3T3 fibroblasts. Description: In vitro cytotoxicity assay of mammalian NIH-3T3 fibroblasts (Alamar blue). Type of data set: cell-based. The conditions noted are these: NIH-3T3 fibroblast growth inhibition, host cell toxicity; 4 days; N = 3. As to the method: The in vitro cell culturing of mammalian NIH-3T3 fibroblasts following treatment with inhibitors to assess for cytotoxicity has previously been described. DMEM lacking phenol red and supplemented with 2% FBS and 1% PSG was warmed up. NIH-3T3 cells were trypsinized, as described in the cell culture protocol. When cells became detached, they were harvested in DMEM lacking phenol red and including 2% FBS and 1% PSG. The cells were centrifuged at 1000 rpm for 5 min, the medium was discarded, and the cells were resuspended in fresh DMEM lacking phenol red and including 2% FBS and 1% PSG. The cells were centrifuged at 1000 rpm for 5 min, resuspended in the medium, counted, and diluted to 500,000 cells/mL. Dilution was accomplished by transferring the stock number of cells into a sterile basin and 100 μL of cells was added to each well of a transparent, sterile, flat-bottom, 96-well microplate (50,000 cells/well) using a multichannel pipette. The plate was placed into the incubator for 3 h to allow cells to attach. The 3-nitro-2-phenyl-2H-chromene compounds were thawed from −80 °C to room temperature. The compounds were prepared as 10.0 mM stock solutions in 100% DMSO. A volume of 2.0 μL of a given compound plus a volume of 98.0 μL of fresh media were both added to a well in the first row of the 96-well microplate; this was performed for each compound to be tested. The solutions were mixed with a micropipette, followed by the transfer of 100 μL to the next row and repeated. The compound solutions ranged from 0.0139–30.3 μM and this was accomplished by serial dilution using a 3-fold dilution. After incubation for 4 days, 10.0 μL of Alamar blue was added to each well. Absorbance readings were measured using a Victor Nivo multimode microplate reader (PerkinElmer, Inc.; Shelton, CT, USA) at λ = 590 nm. All measurements were performed in triplicate and TC50 determinations for percent growth inhibition were carried out using GraphPad Prism 10.0. The final volume per well of cells and a given compound was 100 μL and this volume became 110 μL after the addition of Alamar blue. The detergent SDS was used as a positive control and its final solution concentration was 0.1%. Three controls were carried out, as follows: (a) NIH-3T3 cells alone, (b) perished NIH-3T3 cells (NIH-3T3 cells in the presence of 0.1% SDS), and (c) the medium alone.
(Alamar Blue is a resazurin reagent that responds to reducing activity.)

A further data set deals with TcGlcK. The arrangement: method as in PMID 31133533. The conditions noted are these: earlier HTS campaign of 13,040 compounds; cited from earlier work.
[2] abbreviates: Trypanosoma cruzi, TULAHUEN, NIH3T3, 96 h.

By IC50 is commonly meant the concentration at which inhibition is half-maximal. Consider `O=[N+]([O-])C1=Cc2ccccc2OC1c1c(Cl)cccc1Cl` (stereo not shown) [Compound 13, 2-(2,6-Dichlorophenyl)-3-nitro-2H -chromene], for which, in data set [1] (setting [2]), the IC50 was 3080 ± 80 nM.
In data set [1] (setting [2]), `CCOc1ccc(C2Oc3ccc(Br)cc3C=C2[N+](=O)[O-])cc1OCC` (stereo not shown) [Compound 2, 6-Bromo-2-(3,4-diethoxyphenyl)-3-nitro-2H -chromene] yielded an IC50 of 1440 ± 70 nM.
For `CCOc1ccc(C2Oc3c(Cl)cc(Cl)cc3C=C2[N+](=O)[O-])cc1OCC` (stereo not shown) [Compound 9, 6,8-Dichloro-2-(3,4-diethoxyphenyl)-3-nitro-2H -chromene], the “NIH-3T3 TC50” value with NIH-3T3 fibroblasts was determined as 17500 ± 1600 nM. The IC50 with TcGlcK is 4800 nM.
In data set [1] (setting [2]), `COc1ccc(C2Oc3c(Br)cc(Br)cc3C=C2[N+](=O)[O-])cc1OC` (stereo not shown) [Compound 5, 6,8-Dibromo-2-(3,4-dimethoxyphenyl)-3-nitro-2H -chromene] came in with an IC50 of 640 ± 230 nM.
On to `O=[N+]([O-])C1=Cc2cc(Br)ccc2OC1c1ccccc1Cl` (stereo not shown) [Compound 11, 6-Bromo-2-(2-chlorophenyl)-3-nitro-2H -chromene], for which the “T. cruzi growth inhibition (in words)” value in data set [1] is on record as “nanomolar efficacy”. In addition, the “NIH-3T3 TC50” value in the data set with NIH-3T3 fibroblasts is 4120 nM and 4120 ± 1950 nM.
As to `CCOc1ccc(C2Oc3ccc(Br)cc3C=C2[N+](=O)[O-])cc1OC` (stereo not shown) [Compound 1, 6-Bromo-2-(4-ethoxy-3-methoxyphenyl)-3-nitro-2H -chromene], the IC50 in data set [1] (setting [2]) is below 2000 nM; in data set [1] it was 1490 ± 70 nM; in the data set with TcGlcK it was 6100 nM. Further, the “NIH-3T3 TC50” value with NIH-3T3 fibroblasts was determined as 16000 ± 1840 nM.
Take `CCOc1ccc(C2Oc3ccccc3C=C2[N+](=O)[O-])cc1OCC` (stereo not shown) [Compound 10, 2-(3,4-Diethoxyphenyl)-3-nitro-2H -chromene]: half-maximal inhibition in data set [1] (setting [2]) (IC50) was put at 2560 ± 260 nM. For the same compound, in the data set on NIH-3T3 fibroblasts, the “NIH-3T3 TC50” value is 9450 ± 2200 nM.
In data set [1] (setting [2]), `CCOc1ccc(C2Oc3c(cc(Br)cc3OC)C=C2[N+](=O)[O-])cc1OC` (stereo not shown) [Compound 8, 6-Bromo-2-(4-ethoxy-3-methoxyphenyl)-8-methoxy-3-nitro-2H -chromene] showed an IC50 of 1850 ± 150 nM.
Consider `COc1ccc(C2Oc3ccc(Br)cc3C=C2[N+](=O)[O-])cc1OC` (stereo not shown) [Compound 4, 6-Bromo-2-(3,4-dimethoxyphenyl)-3-nitro-2H -chromene], for which the IC50 in data set [1] (setting [2]) was below 2000 nM; in data set [1] it was 1310 ± 150 nM. In addition, the “NIH-3T3 TC50” value in the data set on NIH-3T3 fibroblasts is 16400 ± 1910 nM.
On to `COc1ccc(C2Oc3c(cc(Br)cc3OC)C=C2[N+](=O)[O-])cc1OC` (stereo not shown) [Compound 3, 6-Bromo-2-(3,4-dimethoxyphenyl)-8-methoxy-3-nitro-2H -chromene], for which half-maximal inhibition in data set [1] (setting [2]) (IC50) required 960 ± 20 nM. Besides, the “NIH-3T3 TC50” value in the data set on NIH-3T3 fibroblasts is 17500 ± 1900 nM.
In data set [1] (setting [2]), `O=[N+]([O-])C1=Cc2cc(Br)cc(Br)c2OC1c1c(Cl)cccc1Cl` (stereo not shown) [Compound 7, 2-(2,6-Dichlorophenyl)-6,8-dibromo-3-nitro-2H -chromene] returned an IC50 of 640 ± 20 nM. In addition, in data set [1], the “T. cruzi growth inhibition (in words)” value is “nanomolar efficacy”. The “NIH-3T3 TC50” value with NIH-3T3 fibroblasts turned out to be 11900 ± 510 nM.
As for `CCOc1ccc(C2Oc3c(Br)cc(Br)cc3C=C2[N+](=O)[O-])cc1OC` (stereo not shown) [Compound 6, 6,8-Dibromo-2-(4-ethoxy-3-methoxyphenyl)-3-nitro-2H -chromene], the values for the IC50 in data set [1] (setting [2]) and in data set [1] were at least 2000 nM and 2560 ± 260 nM, respectively. For the same compound, the “NIH-3T3 TC50” value in the data set with NIH-3T3 fibroblasts was 18100 ± 240 nM.
